Source: patent US20180036355A1 (priority 2004, published 2018)

Assays:
[1] = test system: μ receptors for the opioids (MOR); assay: mRNA expression of the μ receptors for the opioids in epithelial cells stimulated by microorganisms (real-time PCR); assay type: cell-based
CB2 = CB2 immunohistochemistry of colonic epithelial cells of mice; assay type: in vivo, Balb/c mice; conditions: mouse colon sections, 10^9 CFU once a day for fourteen days
CB2 receptors = assay: mRNA expression of the CB2 receptors in epithelial cells stimulated by microorganisms (real-time PCR); assay type: cell-based
IL-1β = assay: Colonic IL-1 beta mRNA expression in mice (real-time PCR); assay type: in vivo, Balb/c mice
TNFα = assay: Colonic TNF alpha mRNA expression in mice (real-time PCR); assay type: in vivo, Balb/c mice
mu-opioid receptor (MOR) = test system: mu-opioid receptor (MOR); design: species or system Balb/c mice; conditions: mouse, in vivo
KC = assay: Colonic KC mRNA expression in mice (real-time PCR); assay type: in vivo, Balb/c mice
[2] = test system: CB1 cannabinoid receptors; assay: mRNA expression of the CB1 receptors in epithelial cells stimulated by microorganisms (real-time PCR); assay type: cell-based
CB1 = CB1 immunohistochemistry of colonic epithelial cells of mice; assay type: in vivo, Balb/c mice; conditions: mouse colon sections, 10^9 CFU once a day for fourteen days
MOR = MOR immunohistochemistry of colonic epithelial cells of mice; assay type: in vivo, Balb/c mice; conditions: mouse colon sections, 10^9 CFU once a day for fourteen days
[3] = Balb/c mice, oral 10^9 CFU during 15 days
[4] = mouse colon, 14 days of administration

## O=C(/C=C/c1ccc(O)c(O)c1)OCCc1ccccc1 [CAPE, caffeic acid phenetyl ester, reference compound]
[1]; HT-29 cells pre-treated with CAPE, stimulated with L. acidophilus
  effect of NFkappaB pathway inhibition on the expression of MOR: did not induce modifications of the expression of MOR

## Lactobacillus acidophilus
CB2
  epithelial stained cells for CB2: 40±7%
CB2 receptors; ATCC HTB-38 epithelial cells, after 3 hours' incubation (FIG. 3)
  increase in the basal expression level of the mRNA of the CB2 receptors: approximately 100 fold
CB2 receptors; HT-29 or Caco-2 cells, 100 bacteria/cell, 0 to 6 hours, p<0.01
  CB2 expression: 1498±333
IL-1β; [3]
  diminution of the expression of colonic inflammatory cytokines (IL-1 beta): at least 50%
IL-1β; [4]
  decreased expression of IL-1β mRNA level compared to controls: More than 50%
TNFα; [3]
  diminution of the expression of colonic inflammatory cytokines (TNF alpha): at least 50%
TNFα; [4]
  decreased expression of TNFα mRNA level compared to controls: More than 50%
mu-opioid receptor (MOR)
  increase of MOR mRNA expression in the colon vs untreated animals: 24 fold
mu-opioid receptor (MOR); po
  expression of MOR mRNA at the colonic level: 24±0.75
KC; [3]
  diminution of the expression of colonic inflammatory cytokines (KC): at least 50%
KC; [4]
  decreased expression of KC mRNA level compared to controls: More than 50%
[2]; ATCC HTB-38 epithelial cells, after 3 hours' incubation (FIG. 2)
  increase in the basal expression level of the mRNA of CB1: approximately 1000 fold
[2]; HT-29 or Caco-2 cells, 100 bacteria/cell, 0 to 6 hours, p<0.05
  CB1 expression: 848±180
CB1
  epithelial stained cells for CB1: 60±8%
MOR
  epithelial stained cells for MOR: 60±10%
[1]; ATCC HTB-38 epithelial cells (FIG. 1), comparator TNF-α 10 ng/ml
  induction of the μ receptors for the opioids (in words): of the same order of magnitude as that obtained by TNF-α
[1]; ATCC HTB-38 epithelial cells, after 3 hours' incubation (FIG. 1)
  increase in the basal expression level of the mRNA of the μ receptors for the opioids: approximately 1000 fold
[1]; HT-29 or Caco-2 cells, 100 bacteria/cell, from the first hour of incubation
  MOR expression in the epithelial cells (in words): strong MOR expression
